Data published in patent publication US8415505B2, “2-methylene-5-substituted-methylenecyclopentanone derivatives and use thereof” (Shenyang Pharmaceutical University, priority 2008, dated 2013).
Where two headings read alike, the source gives them in different places.

Key:
[1] = system: Human breast cancer cells MDA-MB231; assay: In vitro antitumor activity test (MTT), MDA-MB231; assay type: cell-based; details: 4 days culture with drug, growth inhibition, read-out: IC50 (μmol/L) MDA-MB231
Procedure: (§1) In Vitro Antitumor Activity Test
(§2) Cells were taken out carefully from liquid nitrogen (Frozen pipes), and the cell freezing medium was thawed rapidly in water bath at 37° C. in order to rapidly pass the temperature range of 0˜5° C. within which the cell is easily damaged. Cell suspension was sucked with pipette gun and put it into centrifuge tubes under a sterile condition, then centrifuged for 3 min at 1300 r/min. The supernatant was gently discarded, and then added with a fresh medium to pipette and mix the cells. Finally, the cells were transferred into culture flasks and cultured in a carbon dioxide incubator. The medium was changed once after 24 h.
(§3) Human prostate cancer cells (DU145, PC-3) were cultured in RPMI1640 medium containing 10% fetal bovine serum inactivated by heating, 100 IU/mL penicillin, 100 μg/mL streptomycin and 1 mmol/L L-glutamine. Human breast cancer cells (T47D, MDA-MB231) were cultured in RPMI1640 medium containing 10% fetal bovine serum inactivated by heating, 5 μg/mL insulin, 100 IU/mL penicillin, 100 μg/mL streptomycin, and 1 mmol/L L-glutamine. Human breast cancer cells (MCF-7) were cultured in DMEM culture medium containing 10% fetal bovine serum inactivated by heating, 5 μg/mL insulin, 100 IU/mL penicillin, 100 μg/mL streptomycin and […] L-glutamine. Mouse Lewis lung carcinoma cells (LL/2) and mouse melanoma cells (B16F0) were cultured in DMEM culture medium containing 10% fetal bovine serum inactivated by heating, 4.5 g/L glucose, 1.5 g/L NaHCO3, 100 IU/mL penicillin, 100 μg/mL streptomycin and 4 mmol/L L-glutamine. All of the above cell lines were incubated in 37° C. incubator with 5% carbon dioxide saturated humidity
(§4) After 2-3 cycles of cell culture and passage after the cell thawing, the cells were stable and ready for the experiment. The flask bottom should be covered with cells in each cell passage.
(§5) Trypsin solution (0.25%) was applied to digest the cells off the flask bottom when the flask bottom was covered with cells. The digested cell solution was moved to the centrifuge tubes and culture medium was added to stop the digestion; centrifuged for 3 min at 1300 r/min conditions; gently discarded the supernatant, and then added 5 mL medium, pipetted and mixed the cells; added 10 μL of the cell suspension to the cell count plate to count; adjusted the cell concentration to 2×10^4/mL; added 100 μL cell suspension to all wells of the 96 well plate except A1 well which acts as a blank; and placed the 96 well plate in an incubator to culture 24 h and to make sure the cells growing and attached on the wells.
(§6) First formulated the medicine in 16 mmol/L of DMSO storage solution; then diluted the solution with ethanol to 1.6 mmol/L solution; then further diluted with cell culture medium to 32 μmol/L, 16 μmol/L, 8 μmol/L, 4 μmol/L, 2 μmol/L and 1 μmol/L, and added to 96 well plate; 100 μl drug solution were added to each well, thus the final drug concentrations of cells were 16 μmol/L, 8 μmol/L, 4 μmol/L, 2 μmol/L, 1 μmol/L, and 0.5 μmol/L; 3 parallel wells were set for each concentration and placed the 96 well plate was placed into an incubator to continuously culture for 4 days
(§7) Added to each well of the 96 well plate with 50 μL of MTT (2 mg/mL); discarded the MTT (tetrazolium) solution after 4 h incubation in an incubator, then added 200 μL of DMSO; shaking the 96 well plate in a magnetic shaker for 10 min to make sure that the reaction product of the living cells and the MTT, i.e. formazan, was fully dissolved; measured the absorbance value (OD) in microplate reader at the selected 570 nm wavelength, and recorded results. Using the OD values of the cells that were not added with drugs as control, the cell growth inhibition ratio at each test concentration was calculated by using the following formula. Herein, the cancer cell growth inhibition is expressed as the half of the growth inhibitory concentration (IG50 Value) (i.e., the tested drug concentration resulting in 50% cell growth inhibition). […]

[2] = system: Human breast cancer cells T47D; assay: In vitro antitumor activity test (MTT), T47D; assay type: cell-based; details: 4 days culture with drug, growth inhibition, read-out: IC50 (μmol/L) T47D
Procedure: as §1, §2, §3, §4, §5, §6, §7

[3] = system: Human prostate cancer cells DU145; assay: In vitro antitumor activity test (MTT), DU145; assay type: cell-based; details: DU-145, 96 h, 4 days culture with drug, growth inhibition, read-out: IC50 (μmol/L) DU145
Procedure: as §1
as §2, with “h. […]” for “h.”
(§8) After 2-3 cycles of cell culture and passage after the cell thawing, the cells were stable and ready for the experiment. […]
(§9) Added to each well of the 96 well plate with 50 μL of MTT (2 mg/mL); discarded the MTT (tetrazolium) solution after 4 h incubation in an incubator, then added 200 μL of DMSO; shaking the 96 well plate in a magnetic shaker for 10 min to make sure that the reaction product of the living cells and the MTT, i.e. formazan, was fully dissolved; measured the absorbance value (OD) in microplate reader at the selected 570 nm wavelength, and recorded results. […]

[4] = system: Human breast cancer cells MCF-7; assay: In vitro antitumor activity test (MTT), MCF-7; assay type: cell-based; details: MCF7, 96 h, MCF-7 cells, 4 days culture with drug, growth inhibition, read-out: IC50 (μmol/L) MCF-7
Procedure: as §1
as §2, with “h. […]” for “h.”
as §8, §9

Acute toxicity test = details: both sexes, mouse, in vivo, ip; Kunming mice, intraperitoneal injection, observed one week after administration, weighted regression method
Procedure: Animals: healthy Kunming mice, half male and half female, weighed 18-22 g. Animals were provided from Experimental Animal Center of Shenyang Pharmaceutical University. Certificate of Conformity: Real co-Zi Liao No. 033
Name of tested drugs: Example 13, Example 14
Drug preparation: Suspension formulated with 0.2% polysorbate 80 (Tween-80). Dosage to subject is expressed as mg/kg.
Route of administration: Intraperitoneal injection; injection volume was 0.1 ml/10 g, with one time multi-dose administration.
Test cycle and measurement: Observed one week after the administration; recorded toxic reactions in mice daily during observation, with the death of mice as the main indicator. Half lethal dose (LD50, mg/kg) of the administration of compound after a week can be obtained according to weighted regression method.

[5] = system: Mouse Lewis lung carcinoma cells (LL/2); assay: In vitro antitumor activity test (MTT), LL/2; assay type: cell-based; details: 96 h, LL/2 cells, 4 days culture with drug, growth inhibition, read-out: IC50 (μmol/L) LL/2
Procedure: as §1
as §2, with “h. […]” for “h.”
as §8, §9

[6] = system: Human prostate cancer cells PC-3; assay: In vitro antitumor activity test (MTT), PC-3; assay type: cell-based; details: 96 h, PC-3 cells, 4 days culture with drug, growth inhibition, read-out: IC50 (μmol/L) PC-3
Procedure: as §1
as §2, with “h. […]” for “h.”
as §8, §9

[7] = system: mouse melanoma cells (B16F0); assay: In vitro antitumor activity test (MTT), B16F0; assay type: cell-based; details: B16F0, 96 h, B16FD cells (head), 4 days culture with drug, growth inhibition, read-out: IC50 (μmol/L) B16FD
Procedure: as §1
as §2, with “h. […]” for “h.”
as §8, §9

SMILES	IC50 ([1]; Homo sapiens, MDA-MB-231, 96 h) [µmol/L]	IC50 ([2]; Homo sapiens, 96 h) [µmol/L]	also measured
C=C1CCC(=Cc2ccc(OC)cc2)C1=O [Example 2, 2-methylene-5-(4-methoxybenzylidene)-cyclopentanone]	> 16	> 16	
C=C1CCC(=Cc2ccccc2OC)C1=O [Example 7, 2-methylene-5-(2-methoxybenzylidene)cyclopentanone]	11.6	3.93	
C=C1CCC(=Cc2ccc(OCCC)cc2)C1=O [Example 9, 2-methylene-5-(4-propoxybenzylidene)cyclopentanone]	> 16	> 16	
C=C1CCC(=Cc2ccc(N(C)C)cc2)C1=O [Example 11, 2-methylene-5-(4-N,N-dimethylbenzylidene)cyclopentanone]			IC50 [1]: 8.58 µmol/L; IC50 [2]: 1.4 µmol/L
C=C1CCC(=Cc2ccc(OC)c(O)c2)C1=O [Example 13, 2-methylene-5-(3-hydroxy-4-methoxybenzylidene)cyclopentanone]	2.53	0.64	IC50 [3]: 2.95 µmol/L; IC50 [4]: 1.21 µmol/L; LD50 at 1 week (Acute toxicity test): 22.4 mg/kg; IC50 [5]: 5.09 µmol/L; IC50 [6]: 2.01 µmol/L; IC50 [7]: 3.42 µmol/L
C=C1CCC(=Cc2ccc(O)c(OC)c2)C1=O [Example 14, 2-methylene-5-(4-hydroxy-3-methoxybenzylidene)cyclopentanone]	3.21	0.98	IC50 [3]: 2.43 µmol/L; IC50 [4]: 1.05 µmol/L; LD50 at 1 week (Acute toxicity test): 35.2 mg/kg; IC50 [5]: 6.39 µmol/L; IC50 [6]: 1.76 µmol/L; IC50 [7]: 4.4 µmol/L
C=C1CCC(=Cc2cccc(OC)c2OC)C1=O [Example 15, 2-methylene-5-(2,3-dimethoxybenzylidene)cyclopentanone]	> 16	> 16	
C=C1CCC(=Cc2ccc(OC)cc2OC)C1=O [Example 16, 2-methylene-5-(2,4-dimethoxybenzylidene)cyclopentanone]	7.51	> 16	
C=C1CCC(=Cc2ccc3c(c2)OCO3)C1=O [Example 18, 2-methylene-5-(3,4-methylenedioxybenzylidene)cyclopentanone]	6.68	4.89	
C=C1CCC(=Cc2cc(C(C)(C)C)c(O)c(C(C)(C)C)c2)C1=O [Example 20, 2-methylene-5-[3,5-di(t-butyl)-4-hydroxybenzylidene]-cyclopentanone]	14.8	5.31	
C=C1CCC(=Cc2cc(OC)c(OC)c(OC)c2)C1=O [Example 21, 2-methylene-5-(3,4,5-trimethoxybenzylidene)cyclopentanone]	7.84	2.76	
C=C1CCC(=CCC(C)C)C1=O [Example 22, 2-methylene-5-(3-methylbutylidene)cyclopentanone]	> 16	> 16	
C=C1CCC(=C(c2ccccc2)c2ccccc2)C1=O [Example 25, 2-methylene-5-diphenylmethylenecyclopentanone]	> 16	7.23	
C=C1CCC(=C(c2ccc(C)cc2)c2ccc(C)cc2)C1=O [Example 26, 2-methylene-5-[bis(4-methylphenyl)-methylene]cyclopentanone]	7.49	4.36	
C=C1CCC(=C(c2ccc(F)cc2)c2ccc(F)cc2)C1=O [Example 27, 2-methene-5-[bis(4-fluorophenyl)-methylene]cyclopentanone]			IC50 [1]: > 16 µmol/L

Now from value to molecule, other results behind:

IC50 ([1]; Homo sapiens, MDA-MB-231, 96 h) [µmol/L]	IC50 ([2]; Homo sapiens, 96 h) [µmol/L]	SMILES	also measured
4.57	6.37	C=C1CCC(=Cc2ccc(OCC)cc2)C1=O [Example 8, 2-methylene-5-(4-ethoxybenzylidene)cyclopentanone]	
4.96	1.64	C=C1CCC(=Cc2ccc(S(C)(=O)=O)cc2)C1=O [Example 10, 2-methylene-5-(4-methanesulfonylbenzylidene)cyclopentanone]	
4.68	1.29	C=C1CCC(=Cc2ccc(OC)cc2O)C1=O [Example 12, 2-methylene-5-(2-hydroxy-4-methoxybenzylidene)cyclopentanone]	
2.57	2.66	C=C1CCC(=Cc2ccc(OC)c(OC)c2)C1=O [Example 17, 2-methylene-5-(3,4-dimethoxybenzylidene)cyclopentanone]	
3.44	2.82	C=C1CCC(=Cc2cc(OC)c(O)c(OC)c2)C1=O [Example 19, 2-methylene-5-(3,5-dimethoxy-4-hydroxybenzylidene) cyclopentanone]	
5.96	> 16	C=C1CCC(=Cc2ccc(O)cc2)C1=O [Example 23, 2-methylene-5-(4-hydroxybenzylidene)cyclopentanone]	
5.54	5.02	C=C1CCC(=Cc2ccccc2O)C1=O [Example 24, 2-methylene-5-(2-hydroxybenzylidene)cyclopentanone]	
